Patent publication US20230085307A1, “PYRIDAZINONE COMPOUND AND HERBICIDE” (NISSAN CHEMICAL CORPORATION, priority 2019, published 2023)

Assays:
redroot pigweed [1] = assay: Test Example 5: herbicidal effect by foliage application, plastic box (Table 20, symbol N); type: in vivo, redroot pigweed (Amaranthus retroflexus); details: 320 g/ha
Method in brief: (§1)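 Post-emergence foliar test in sterilized diluvial soil. Compound applied as water-diluted emulsion at a predetermined rate to 14-day-old plants; evaluation at three weeks.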

velvetleaf [2] = assay: Test Example 5: herbicidal effect by foliage application, plastic box (Table 20, symbol M); type: in vivo, velvetleaf (Abutilon theophrasti); details: 320 g/ha
Method in brief: as §1

late watergrass = assay: Test Example 1: herbicidal activity, application before weed generation under submerged conditions (Table 16, symbol A); type: in vivo, late watergrass (Echinochloa oryzicola); details: amount of applied herbicide 320 g/ha
Method in brief: (§2)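 Alluvial soil was flooded to 4 cm depth, weed seeds were sown mixed and 2.5-leaf rice seedlings were transplanted. On sowing day, the compound's emulsion, diluted in water to a set dose, was applied to the water surface. Plants grew at 25–30 °C and were scored 0–5 after three weeks.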

Japanese bulrush = assay: Test Example 1: herbicidal activity, application before weed generation under submerged conditions (Table 16, symbol B); type: in vivo, Japanese bulrush (Schoenoplectus juncoides); details: amount of applied herbicide 320 g/ha
Method in brief: as §2

blackgrass [3] = assay: Test Example 4: herbicidal effect by soil treatment (Table 19, symbol J); type: in vivo, blackgrass (Alopecurus myosuroides); details: amount of applied herbicide 320 g/ha
Method in brief: (§3)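 Emulsion of test compound, water-diluted to predetermined amount, sprayed on soil after sowing (seed depth ~1.5 cm, sterilized diluvial soil). Greenhouse, 25–30° C. Effect graded at three weeks post-spray.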

barnyard grass [4] = assay: Test Example 3: herbicidal effect by foliage application, Wagner pot (Table 18, symbol H); type: in vivo, barnyard grass (Echinochloa crus-galli); details: 320 g/ha
Method in brief: (§4)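 Plants were sown in alluvial soil held under 0.1–0.5 cm standing water and grown 14 days in a greenhouse at 25–30 °C. An emulsifiable formulation, water-diluted to the set dose, was then sprayed onto the foliage, and effects were scored three weeks later using previously defined criteria.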

chickweed [5] = assay: Test Example 5: herbicidal effect by foliage application, plastic box (Table 20, symbol P); type: in vivo, common chickweed (Stellaria media); details: 320 g/ha
Method in brief: as §1

velvetleaf [6] = assay: Test Example 4: herbicidal effect by soil treatment (Table 19, symbol M); type: in vivo, velvetleaf (Abutilon theophrasti); details: amount of applied herbicide 320 g/ha
Method in brief: as §3

southern crabgrass [7] = assay: Test Example 5: herbicidal effect by foliage application, plastic box (Table 20, symbol F); type: in vivo, southern crabgrass (Digitaria ciliaris); details: 320 g/ha
Method in brief: as §1

Italian ryegrass [8] = assay: Test Example 5: herbicidal effect by foliage application, plastic box (Table 20, symbol K); type: in vivo, Italian ryegrass (Lolium multiflorum); details: 320 g/ha
Method in brief: as §1

redroot pigweed [9] = assay: Test Example 4: herbicidal effect by soil treatment (Table 19, symbol N); type: in vivo, redroot pigweed (Amaranthus retroflexus); details: amount of applied herbicide 320 g/ha
Method in brief: as §3

barnyard grass [10] = assay: Test Example 5: herbicidal effect by foliage application, plastic box (Table 20, symbol H); type: in vivo, barnyard grass (Echinochloa crus-galli); details: 320 g/ha
Method in brief: as §1

barnyard grass [11] = assay: Test Example 4: herbicidal effect by soil treatment (Table 19, symbol H); type: in vivo, barnyard grass (Echinochloa crus-galli); details: amount of applied herbicide 320 g/ha
Method in brief: as §3

blackgrass [12] = assay: Test Example 5: herbicidal effect by foliage application, plastic box (Table 20, symbol J); type: in vivo, blackgrass (Alopecurus myosuroides); details: 320 g/ha
Method in brief: as §1

persian speedwell [13] = assay: Test Example 4: herbicidal effect by soil treatment (Table 19, symbol R); type: in vivo, Persian speedwell (Veronica persica); details: amount of applied herbicide 320 g/ha
Method in brief: as §3

rice flat sedge = assay: Test Example 3: herbicidal effect by foliage application, Wagner pot (Table 18, symbol E); type: in vivo, rice flat sedge (Cyperus iria); details: 320 g/ha
Method in brief: as §4

windgrass [14] = assay: Test Example 5: herbicidal effect by foliage application, plastic box (Table 20, symbol L); type: in vivo, windgrass (Apera spica-venti); details: 320 g/ha
Method in brief: as §1

Italian ryegrass [15] = assay: Test Example 4: herbicidal effect by soil treatment (Table 19, symbol K); type: in vivo, Italian ryegrass (Lolium multiflorum); details: amount of applied herbicide 320 g/ha
Method in brief: as §3

chickweed [16] = assay: Test Example 4: herbicidal effect by soil treatment (Table 19, symbol P); type: in vivo, common chickweed (Stellaria media); details: amount of applied herbicide 320 g/ha
Method in brief: as §3

lambsquarters [17] = assay: Test Example 4: herbicidal effect by soil treatment (Table 19, symbol O); type: in vivo, lambsquarters (Chenopodium album); details: amount of applied herbicide 320 g/ha
Method in brief: as §3

green foxtail [18] = assay: Test Example 5: herbicidal effect by foliage application, plastic box (Table 20, symbol G); type: in vivo, green foxtail (Setaria viridis); details: 320 g/ha
Method in brief: as §1

persian speedwell [19] = assay: Test Example 5: herbicidal effect by foliage application, plastic box (Table 20, symbol R); type: in vivo, Persian speedwell (Veronica persica); details: 320 g/ha
Method in brief: as §1

windgrass [20] = assay: Test Example 4: herbicidal effect by soil treatment (Table 19, symbol L); type: in vivo, windgrass (Apera spica-venti); details: amount of applied herbicide 320 g/ha
Method in brief: as §3

oval-leafed pondweed = assay: Test Example 1: herbicidal activity, application before weed generation under submerged conditions (Table 16, symbol C); type: in vivo, oval-leafed pondweed (Monochoria vaginalis); details: amount of applied herbicide 320 g/ha
Method in brief: as §2

southern crabgrass [21] = assay: Test Example 4: herbicidal effect by soil treatment (Table 19, symbol F); type: in vivo, southern crabgrass (Digitaria ciliaris); details: amount of applied herbicide 320 g/ha
Method in brief: as §3

wild oat [22] = assay: Test Example 4: herbicidal effect by soil treatment (Table 19, symbol I); type: in vivo, wild oat (Avena fatua); details: amount of applied herbicide 320 g/ha
Method in brief: as §3

green foxtail [23] = assay: Test Example 4: herbicidal effect by soil treatment (Table 19, symbol G); type: in vivo, green foxtail (Setaria viridis); details: amount of applied herbicide 320 g/ha
Method in brief: as §3

lambsquarters [24] = assay: Test Example 5: herbicidal effect by foliage application, plastic box (Table 20, symbol O); type: in vivo, lambsquarters (Chenopodium album); details: 320 g/ha
Method in brief: as §1

Chinese sprangletop = assay: Test Example 3: herbicidal effect by foliage application, Wagner pot (Table 18, symbol D); type: in vivo, chinese sprangletop (Leptochloa chinensis); details: 320 g/ha
Method in brief: as §4

wild oat [25] = assay: Test Example 5: herbicidal effect by foliage application, plastic box (Table 20, symbol I); type: in vivo, wild oat (Avena fatua); details: 320 g/ha
Method in brief: as §1

[26] = foliage application after 14-day growth, evaluated three weeks after application
[27] = foliage application, three weeks after application

CCCC(=O)Oc1c(C)nn(C)c(=O)c1-c1c(-c2ccccc2OCC)sc2c(F)cccc12 [4-008]
herbicidal effect on N: redroot pigweed (evaluation grade 0-5) (redroot pigweed [1]; [26]): 5 (Herbicidal rate of 90% or more (almost completely withered)) | herbicidal effect on M: velvetleaf (evaluation grade 0-5) (velvetleaf [2]; [26]): 4 (Herbicidal rate of 70% or more and less than 90%) | Herbicidal effect, A: late watergrass (late watergrass): 3 (Herbicidal rate of 40% or more and less than 70%) | Herbicidal effect, B: Japanese bulrush (Japanese bulrush): 3 (Herbicidal rate of 40% or more and less than 70%) | Herbicidal effect by soil treatment, J: blackgrass (blackgrass [3]): 0 (Herbicidal rate of 5% or less (almost no effect)) | herbicidal effect on barnyard grass (H) (barnyard grass [4]): 5 (Herbicidal rate of 90% or more (almost completely withered)) | herbicidal effect on P: chickweed (evaluation grade 0-5) (chickweed [5]; [26]): 5 (Herbicidal rate of 90% or more (almost completely withered)) | Herbicidal effect by soil treatment, M: velvetleaf (velvetleaf [6]): 1 (Herbicidal rate of 5% or more and less than 20%) | herbicidal effect on F: southern crabgrass (evaluation grade 0-5) (southern crabgrass [7]; [26]): 4 (Herbicidal rate of 70% or more and less than 90%) | herbicidal effect on K: Italian ryegrass (evaluation grade 0-5) (Italian ryegrass [8]; [26]): 0 (Herbicidal rate of 5% or less (almost no effect)) | Herbicidal effect by soil treatment, N: redroot pigweed (redroot pigweed [9]): 2 (Herbicidal rate of 20% or more and less than 40%) | herbicidal effect on H: barnyard grass (evaluation grade 0-5) (barnyard grass [10]; [26]): 4 (Herbicidal rate of 70% or more and less than 90%) | Herbicidal effect by soil treatment, H: barnyard grass (barnyard grass [11]): 3 (Herbicidal rate of 40% or more and less than 70%) | herbicidal effect on J: blackgrass (evaluation grade 0-5) (blackgrass [12]; [26]): 3 (Herbicidal rate of 40% or more and less than 70%) | Herbicidal effect by soil treatment, R: persian speedwell (persian speedwell [13]): 0 (Herbicidal rate of 5% or less (almost no effect)) | herbicidal effect on rice flat sedge (E) (rice flat sedge): 5 (Herbicidal rate of 90% or more (almost completely withered)) | herbicidal effect on L: windgrass (evaluation grade 0-5) (windgrass [14]; [26]): 5 (Herbicidal rate of 90% or more (almost completely withered)) | Herbicidal effect by soil treatment, K: Italian ryegrass (Italian ryegrass [15]): 0 (Herbicidal rate of 5% or less (almost no effect)) | Herbicidal effect by soil treatment, P: chickweed (chickweed [16]): 1 (Herbicidal rate of 5% or more and less than 20%) | Herbicidal effect by soil treatment, O: lambsquarters (lambsquarters [17]): 2 (Herbicidal rate of 20% or more and less than 40%) | herbicidal effect on G: green foxtail (evaluation grade 0-5) (green foxtail [18]; [26]): 5 (Herbicidal rate of 90% or more (almost completely withered)) | herbicidal effect on R: persian speedwell (evaluation grade 0-5) (persian speedwell [19]; [26]): 4 (Herbicidal rate of 70% or more and less than 90%) | Herbicidal effect by soil treatment, L: windgrass (windgrass [20]): 0 (Herbicidal rate of 5% or less (almost no effect)) | Herbicidal effect, C: oval-leafed pondweed (oval-leafed pondweed): 0 (Herbicidal rate of 5% or less (almost no effect)) | Herbicidal effect by soil treatment, F: southern crabgrass (southern crabgrass [21]): 2 (Herbicidal rate of 20% or more and less than 40%) | Herbicidal effect by soil treatment, I: wild oat (wild oat [22]): 0 (Herbicidal rate of 5% or less (almost no effect)) | Herbicidal effect by soil treatment, G: green foxtail (green foxtail [23]): 3 (Herbicidal rate of 40% or more and less than 70%) | herbicidal effect on O: lambsquarters (evaluation grade 0-5) (lambsquarters [24]; [26]): 3 (Herbicidal rate of 40% or more and less than 70%) | herbicidal effect on Chinese sprangletop (D) (Chinese sprangletop): 3 (Herbicidal rate of 40% or more and less than 70%) | herbicidal effect on I: wild oat (evaluation grade 0-5) (wild oat [25]; [26]): 0 (Herbicidal rate of 5% or less (almost no effect))

Cc1nn(C)c(=O)c(-c2c(-c3ccc(OC(C)C)cc3)sc3cc(Cl)ccc23)c1O [3-041]
N: redroot pigweed, herbicidal effect grade (redroot pigweed [1]; [27]): 2 (Herbicidal rate of 20% or more and less than 40%) | M: velvetleaf, herbicidal effect grade (velvetleaf [2]; [27]): 0 (Herbicidal rate of 5% or less (almost no effect)) | Herbicidal effect, A: late watergrass (late watergrass): 2 (Herbicidal rate of 20% or more and less than 40%) | Herbicidal effect, B: Japanese bulrush (Japanese bulrush): 0 (Herbicidal rate of 5% or less (almost no effect)) | J: blackgrass, herbicidal effect grade (blackgrass [3]): 0 (Herbicidal rate of 5% or less (almost no effect)) | herbicidal effect on barnyard grass (H) (barnyard grass [4]): 2 (Herbicidal rate of 20% or more and less than 40%) | P: chickweed, herbicidal effect grade (chickweed [5]; [27]): 3 (Herbicidal rate of 40% or more and less than 70%) | M: velvetleaf, herbicidal effect grade (velvetleaf [6]): 0 (Herbicidal rate of 5% or less (almost no effect)) | F: southern crabgrass, herbicidal effect grade (southern crabgrass [7]; [27]): 0 (Herbicidal rate of 5% or less (almost no effect)) | K: Italian ryegrass, herbicidal effect grade (Italian ryegrass [8]; [27]): 0 (Herbicidal rate of 5% or less (almost no effect)) | N: redroot pigweed, herbicidal effect grade (redroot pigweed [9]): 0 (Herbicidal rate of 5% or less (almost no effect)) | H: barnyard grass, herbicidal effect grade (barnyard grass [10]; [27]): 0 (Herbicidal rate of 5% or less (almost no effect)) | H: barnyard grass, herbicidal effect grade (barnyard grass [11]): 0 (Herbicidal rate of 5% or less (almost no effect)) | J: blackgrass, herbicidal effect grade (blackgrass [12]; [27]): 0 (Herbicidal rate of 5% or less (almost no effect)) | R: persian speedwell, herbicidal effect grade (persian speedwell [13]): 2 (Herbicidal rate of 20% or more and less than 40%) | herbicidal effect on rice flat sedge (E) (rice flat sedge): 1 (Herbicidal rate of 5% or more and less than 20%) | L: windgrass, herbicidal effect grade (windgrass [14]; [27]): 0 (Herbicidal rate of 5% or less (almost no effect)) | K: Italian ryegrass, herbicidal effect grade (Italian ryegrass [15]): 0 (Herbicidal rate of 5% or less (almost no effect)) | P: chickweed, herbicidal effect grade (chickweed [16]): 1 (Herbicidal rate of 5% or more and less than 20%) | O: lambsquarters, herbicidal effect grade (lambsquarters [17]): 0 (Herbicidal rate of 5% or less (almost no effect)) | G: green foxtail, herbicidal effect grade (green foxtail [18]; [27]): 0 (Herbicidal rate of 5% or less (almost no effect)) | R: persian speedwell, herbicidal effect grade (persian speedwell [19]; [27]): 5 (Herbicidal rate of 90% or more (almost completely withered)) | L: windgrass, herbicidal effect grade (windgrass [20]): 0 (Herbicidal rate of 5% or less (almost no effect)) | Herbicidal effect, C: oval-leafed pondweed (oval-leafed pondweed): 0 (Herbicidal rate of 5% or less (almost no effect)) | F: southern crabgrass, herbicidal effect grade (southern crabgrass [21]): 0 (Herbicidal rate of 5% or less (almost no effect)) | I: wild oat, herbicidal effect grade (wild oat [22]): 0 (Herbicidal rate of 5% or less (almost no effect)) | G: green foxtail, herbicidal effect grade (green foxtail [23]): 0 (Herbicidal rate of 5% or less (almost no effect)) | O: lambsquarters, herbicidal effect grade (lambsquarters [24]; [27]): 1 (Herbicidal rate of 5% or more and less than 20%) | herbicidal effect on Chinese sprangletop (D) (Chinese sprangletop): 0 (Herbicidal rate of 5% or less (almost no effect)) | I: wild oat, herbicidal effect grade (wild oat [25]; [27]): 0 (Herbicidal rate of 5% or less (almost no effect))
